How the values were obtained:
[1] = system: Ba/F3-KDR-transfected cells; experiment: Ba/F3-KDR (plus IL3) cellular proliferation assay, counterscreen with 10 ng/ml murine IL3; format: cell-based; conditions: plus IL3 (10 ng/ml murine IL3, counterscreen); read-out: BAF3-KDR (PLUS IL3) pIC50 (converted)
Summary of the method: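 Proliferation is measured as Alamar Blue relative fluorescence units following 24 h compound treatment of 20000 cells per well in 10% FBS medium. The IL3-supplemented run serves as a counterscreen under the same conditions.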

[2] = biological target: Ba/F3-FGFR4-transfected cells (Homo sapiens, UniProt P22455); experiment: Ba/F3-FGFR4 cellular proliferation assay, Alamar Blue; format: cell-based
Sequence of Ba/F3-FGFR4-transfected cells (P22455 whole entry, change not shown): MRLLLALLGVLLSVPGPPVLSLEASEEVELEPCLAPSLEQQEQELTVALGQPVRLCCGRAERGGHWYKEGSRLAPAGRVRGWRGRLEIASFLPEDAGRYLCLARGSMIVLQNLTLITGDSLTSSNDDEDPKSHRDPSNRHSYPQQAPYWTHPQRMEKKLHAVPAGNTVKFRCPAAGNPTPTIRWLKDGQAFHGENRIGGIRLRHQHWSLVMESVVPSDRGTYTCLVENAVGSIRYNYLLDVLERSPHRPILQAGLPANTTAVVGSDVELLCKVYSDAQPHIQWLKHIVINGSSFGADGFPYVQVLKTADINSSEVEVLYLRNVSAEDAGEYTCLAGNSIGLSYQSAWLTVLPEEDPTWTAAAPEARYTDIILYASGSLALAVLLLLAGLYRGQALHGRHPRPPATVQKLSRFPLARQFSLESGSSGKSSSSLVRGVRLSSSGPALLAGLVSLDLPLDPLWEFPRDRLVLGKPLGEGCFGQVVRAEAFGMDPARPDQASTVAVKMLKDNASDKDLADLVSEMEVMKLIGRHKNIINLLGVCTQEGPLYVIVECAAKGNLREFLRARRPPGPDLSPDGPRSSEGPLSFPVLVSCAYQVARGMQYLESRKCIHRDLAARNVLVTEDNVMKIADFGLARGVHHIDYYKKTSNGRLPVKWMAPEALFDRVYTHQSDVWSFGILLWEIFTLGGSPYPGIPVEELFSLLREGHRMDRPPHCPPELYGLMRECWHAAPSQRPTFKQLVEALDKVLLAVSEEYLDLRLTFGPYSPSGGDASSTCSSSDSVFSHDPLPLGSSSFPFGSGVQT
Summary of the method: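 Proliferation of Ba/F3-FGFR4-transfected cells is gauged by Alamar Blue (resazurin) fluorescence after 24 hours of compound treatment in phenol red free RPMI-1640 with 10% FBS.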

Row | Structure (SMILES) | IC50 [1] [µM] | BAF3-FGFR4 pIC50 [2] | melting point [°C]
1 | COCC(O)Cn1/c(=N/c2cc(OC)cc(OC)c2F)ccc2ncc(-c3cnn(C)c3)nc21 (single isomer, unassigned) [Compound 60] | > 10 | 7.76 | 114
2 | COc1cc(OC)c(F)c(N(CC(O)COC(C)C)c2ccc3ncc(-c4cnn(CC(O)COC(C)C)c4)nc3n2)c1 (single isomer, unassigned) [Compound 252] | > 10 | 6.95 | 60
3 | COc1cc(OC)c(F)c(N(C)c2ccc3ncc(-c4cnn(C)c4)nc3n2)c1F (single isomer, unassigned) [Compound 254] | > 10 | 7.15 | 210
4 | COc1cc(OC)c(F)c(/N=c2\ccc3ncc(-c4cnn(C)c4)nc3n2C)c1F (single isomer, unassigned) [Compound 255] | > 10 | 7.34 | 199
5 | COc1cc(OC)c(F)c(/N=c2\ccc3ncc(-c4cnn(C)c4)nc3n2CC2CC2)c1F (single isomer, unassigned) [Compound 267] | > 10 | 7.55 | 195
6 | COc1cc(OC)c(F)c(N(CC2CC2)c2ccc3ncc(-c4cnn(C)c4)nc3n2)c1F (single isomer, unassigned) [Compound 268] | > 10 | 6.90 | 
7 | COc1cc(OC)c(F)c(N(CC(O)c2cnn(C)c2)c2ccc3ncc(-c4cnn(C)c4)nc3n2)c1 (stereo not shown) [Compound 244] | > 10 | 6.11 | 
8 | COc1cc(OC)c(F)c(N(CC(C)(C)O)c2ccc3ncc(-c4cnn(C)c4)nc3n2)c1 [Compound 245] | > 10 | 6.34 | 
9 | COc1cc(/N=c2\ccc3ncc(-c4cnn(C)c4)nc3n2CC(C)(C)O)c(F)c(OC)c1 [Compound 246] | > 10 | 6.71 | 
10 | COc1cc(/N=c2\ccc3ncc(-c4cnn(C)c4)nc3n2CC2CCC(=O)N2CCO)c(F)c(OC)c1 (stereo not shown) [Compound 247] | > 10 | 6.87 | 
11 | COc1cc(OC)c(F)c(N(CC(=O)NC(C)C)c2ccc3ncc(-c4cnn(C)c4)nc3n2)c1 [Compound 249] | > 10 | 6.00 | 
12 | COc1cc(OC)cc(N(CC(O)COC(C)C)c2ccc3ncc(-c4cnn(CC(O)COC(C)C)c4)nc3n2)c1 (stereo not shown) [Compound 250] | > 10 | 6.37 | 
13 | COc1cc(OC)cc(N(Cc2c[nH]nn2)c2ccc3ncc(-c4cnn(C)c4)nc3n2)c1 [Compound 251] | > 10 | 6.57 | 
14 | COc1cc(OC)c(F)c(N(Cc2ncc[nH]2)c2ccc3ncc(-c4cnn(C5COC5)c4)nc3n2)c1 [Compound 253] | > 10 | 7.90 | 
15 | CCn1/c(=N/c2c(F)c(OC)cc(OC)c2F)ccc2ncc(-c3cnn(C)c3)nc21 [Compound 257] | > 10 | 7.98 | 
16 | COc1cc(OC)c(F)c(N(Cc2c[nH]nn2)c2ccc3ncc(-c4cnn(C)c4)nc3n2)c1 [Compound 258] | > 10 | 7.03 | 
17 | COc1cc(OC)c(F)c(N(Cc2ncc[nH]2)c2ccc3ncc(N4C[C@@H](C)N[C@@H](C)C4)nc3n2)c1 [Compound 259] | > 10 | 6.19 | 
18 | CNC(=O)c1cc(F)cc(N(Cc2ncc[nH]2)c2ccc3ncc(-c4cnn(C)c4)nc3n2)c1 [Compound 261] | > 10 | 6.77 | 180
19 | COc1cc(OC)c(F)c(N(CC(=O)N2CCNCC2)c2ccc3ncc(-c4cnn(C)c4)nc3n2)c1 [Compound 262] | > 10 | 5.63 | 
20 | COc1cc(OC)c(F)c(N(Cc2ncc[nH]2)c2ccc3ncc(-c4cnn(CCS(C)(=O)=O)c4)nc3n2)c1 [Compound 264] | > 10 | 7.18 | 
21 | COc1cc(OC)c(F)c(N(CCS(C)(=O)=O)c2ccc3ncc(-c4cnn(CCS(C)(=O)=O)c4)nc3n2)c1 [Compound 266] | > 10 | 5.78 | 180

Row | Structure (SMILES) | IC50 [1] [µM] | BAF3-FGFR4 pIC50 [2] | melting point [°C]
22 | COc1cc(OC)c(F)c(N(CC2CC(O)C(=O)N2)c2ccc3ncc(-c4cnn(C)c4)nc3n2)c1 (stereo not shown) [Compound 269] | > 10 | 6.29 | 
23 | COc1cc(/N=c2\ccc3ncc(-c4cnn(C)c4)nc3n2CC2CC(O)C(=O)N2)c(F)c(OC)c1 (stereo not shown) [Compound 270] | > 10 | 6.40 | 
24 | COc1cc(OC)cc(N(CC2CC(O)C(=O)N2)c2ccc3ncc(-c4cnn(C)c4)nc3n2)c1 (stereo not shown) [Compound 271] | > 10 | 5.80 | 
25 | COc1cc(/N=c2\ccc3ncc(-c4cnn(C)c4)nc3n2CC2CC(O)C(=O)N2)cc(OC)c1 (stereo not shown) [Compound 272] | > 10 | 5.97 | 
26 | COc1cc(OC)c(C)c(N(Cc2ncc[nH]2)c2ccc3ncc(-c4cnn(C)c4)nc3n2)c1 [Compound 273] | > 10 | 7.60 | 
27 | COc1cc(OC)cc(N(CCS(C)(=O)=O)c2ccc3ncc(-c4cnn(CCS(C)(=O)=O)c4)nc3n2)c1 [Compound 275] | > 10 | 5.13 | 172
28 | COc1cc(OC)cc(N(CC(C)(C)O)c2ccc3ncc(-c4cnn(C)c4)nc3n2)c1 [Compound 276] | > 10 | 5.82 | 
29 | COc1cc(/N=c2\ccc3ncc(-c4cnn(C)c4)nc3n2CC(C)(C)O)cc(OC)c1 [Compound 277] | > 10 | 6.37 | 
30 | COc1cc(OC)c(F)c(N(CC(C)(C)O)c2ccc3ncc(-c4cnn(C)c4)nc3n2)c1F [Compound 278] | > 10 | 7.11 | 
31 | COc1cc(OC)cc(N(c2ccc3ncc(-c4cnn(C)c4)nc3n2)C(C)c2ncc[nH]2)c1 (stereo not shown) [Compound 280] | > 10 | 7.97 | 
32 | COc1cc(OC)cc(N(Cc2nnc(NCCO)o2)c2ccc3ncc(-c4cnn(C)c4)nc3n2)c1 [Compound 282] | > 10 | <5 | 104
33 | COc1cc(OC)c(F)c(N(CC2CCC(=O)N2)c2ccc3ncc(-c4cnn(CC(C)(C)O)c4)nc3n2)c1 (stereo not shown) [Compound 285] | > 10 | 6.12 | 
34 | COc1cc(/N=c2\ccc3ncc(-c4cnn(CC(C)(C)O)c4)nc3n2CC2CCC(=O)N2)c(F)c(OC)c1 (stereo not shown) [Compound 286] | > 10 | 6.69 | 
35 | COc1cc(OC)c(F)c(N(c2ccc3ncc(-c4cnn(C)c4)nc3n2)C(C)c2ncc[nH]2)c1 (stereo not shown) [Compound 287] | > 10 | 8.08 | 
36 | CNCCn1ccnc1CN(c1ccc2ncc(-c3cnn(C)c3)nc2n1)c1cc(OC)cc(OC)c1F [Compound 289] | > 10 | 6.07 | 92
37 | COc1cc(OC)cc(N(CCNC2COC2)c2ccc3ncc(-c4cnn(C)c4)nc3n2)c1 [Compound 290] | > 10 | 6.32 | 
38 | COc1cc(OC)c(F)c(N(Cc2ncc[nH]2)c2ccc3ncc(N4CCOCC4)nc3n2)c1 [Compound 291] | > 10 | 7.08 | 
39 | COc1cc(OC)cc(N(Cc2ncc[nH]2)c2ccc3ncc(N4CCOCC4)nc3n2)c1 [Compound 293] | > 10 | 6.82 | 
40 | COc1cc(OC)c(F)c(N(Cc2ncc[nH]2)c2ccc3ncc(-c4cnn(CCCN)c4)nc3n2)c1 [Compound 295] | > 10 | 7.61 | 
41 | COc1cc(OC)c(F)c(N(Cc2noc(C)n2)c2ccc3ncc(-c4cnn(C)c4)nc3n2)c1 [Compound 297] | > 10 | 6.99 | 
42 | COc1cc(OC)c(F)c(N(CC2CCC(=O)N2)c2ccc3ncc(-c4cnn(C5CNC5)c4)nc3n2)c1 (stereo not shown) [Compound 299] | > 10 | 5.32 | 

From patent US9309242B2, “Substituted pyrido[2,3-b]pyrazines as FGFR kinase inhibitors” (priority 2011, dated 2016)
